According to patent US10653693B2, “PRMT5 inhibitors and uses thereof” (Epizyme, Inc., priority 2014, dated 2020):
Like-named read-outs stand apart in the source and are kept apart here. Values belong to the molecule of their own block, whether it stands above or below them.

Columns and labels:
Panc-1 = assay: Foci formation and cellular morphology; assay type: cell-based
Protocol: (§1) FIG. 18 illustrates the effect of foci formation and cellular morphology in pancreatic cancer cell lines (Miapaca-2, Panc-1). The effects of treatment with Formula D on pancreatic cancer cell morphology was also tested.

Miapaca-2 = assay: Foci formation and cellular morphology; assay type: cell-based
Protocol: as §1

Panc-1 cells = assay: 2D-proliferation assay; assay type: cell-based; conditions: Homo sapiens
Protocol: (§2) Calculation of growth inhibitory concentrations (g IC50) at Days 4, 6 and 13 treated with Formula D. 2D-proliferation assays were also performed on pancreatic cell lines treated with Formula D. Treatment of both Miapaca-2 and Panc-1 cells with Formula D results in a decrease in cell proliferation, as shown in FIG. 19.

MiaPaca-2 cells = assay: 2D-proliferation assay; assay type: cell-based; conditions: Homo sapiens
Protocol: as §2

[1] = Body weight loss in Z-138 xenograft study; assay type: in vivo
Protocol: (§3) Data presented in this example were determined after analysis of 21 day samples of mantle cell lymphoma tumors. Cmin PK samples were taken prior to the last dose on day 21. Tumors were excised, weighed and processed for methyl mark. Methyl mark reduction was measured in tumor samples and is shown as percent of vehicle control (POC). Both SYM11 and sDMA Elisa were used to measure methyl mark and the data shown is averaged from 10 animals. Tumor growth inhibition was determined using tumor volume reduction at day 21 expressed as a percent of POC. In vivo inhibition curves were also generated and IC50 values determined. Plasma levels from each group are averaged from 5 animals. […] The average body weight loss (BWL) in all groups was <6%. All doses tested show >50% TGI. […] The average BWL in all groups was <4%. The average BWL in all groups was <8%, except in the 100 mg/kg does group were 4 animals exceeded BWL of 15%.

Jeko-1 = assay: Long-term proliferation (LTP) assay; assay type: cell-based; conditions: Homo sapiens, Table 3, read-out: LTP IC50
Granta-519 = assay: Long-term proliferation (LTP) assay; assay type: cell-based; conditions: Homo sapiens, Table 3, read-out: LTP IC50
Mino = assay: Long-term proliferation (LTP) assay; assay type: cell-based; conditions: Homo sapiens, Table 3, read-out: LTP IC50
Z-138 xenograft model = assay: 21 day mantle cell lymphoma xenograft study: TGI and tumor methyl mark; assay type: in vivo; conditions: Z-138 xenograft; all doses tested; day 21
Protocol: as §3, with “Both SYM11 and sDMA Elisa were used to measure methyl mark and the data shown is averaged from 10 animals.” left out

Z-138 = assay: Long-term proliferation (LTP) assay; assay type: cell-based; conditions: Homo sapiens, Table 3, read-out: LTP IC50
Protocol: FIG. 4 illustrates a representative sample of a long-term proliferation assay performed in the mantle cell lymphoma cell line Z-138. Assays were performed in technical triplicates, reading cell viability over 14 days. Growth curves (top panel) were calculated in Excel. IC50 (bottom panel) and IC90 (not shown) values were calculated in GraphPad Prism using a non-linear regression analysis, fixing the top and bottom of the curves to 100 and 0%, respectively. The IC50 values in the Table are indicated in microM. [table]

Maver-1 = assay: Long-term proliferation (LTP) assay; assay type: cell-based; conditions: Homo sapiens, Maver1, Table 3, read-out: LTP IC50
Z-138 cells = assay: Annexin-V staining (apoptosis); assay type: cell-based, Human; conditions: 200 nM
Protocol: (§4) The mechanism of cell killing was evaluated in the MCL cell lines, Z-138 and Mayer-1. Cells were treated at various time points with 2 nM, 20 nM, and 200 nM of Formula B. Apoptosis was assessed by measuring the percentage of Annexin-V positive cells and the assay was performed in triplicate.

Maver-1 cells = assay: Annexin-V staining (apoptosis); assay type: cell-based, Human; conditions: after 4 days of treatment
Protocol: as §4

[2] = test system: sDMA methylation in Mino cells; assay: sDMA western blot, 10 kDa band to total SmD3; assay type: cell-based; conditions: Homo sapiens, Table 3, read-out: sDMA Western IC50
Protocol: (§5) The measurement of the 10 kDa band was used to calculate the methylation IC50 values. […] Concentration-dependent decreases in the 10 kDa band were observed on day 4 in all cell lines tested with representative western blots shown for Z-138 and Maver-1 cell lines (FIG. 1). Levels of the 10 kDa band from the western blots were quantified by densitometry and ratios of 10 kDa band (postulated to be SmD3me2s) to total SmD3 were calculated to determine the IC50s (Table 2, n=1 for all samples).

[3] = test system: sDMA methylation in Jeko-1 cells; assay: sDMA western blot, 10 kDa band to total SmD3; assay type: cell-based; conditions: Homo sapiens, Table 3, read-out: sDMA Western IC50
Protocol: as §5

[4] = test system: sDMA methylation in Maver-1 cells; assay: sDMA western blot, 10 kDa band to total SmD3; assay type: cell-based; conditions: Homo sapiens, Maver1, Table 3, read-out: sDMA Western IC50
Protocol: as §5

[5] = test system: sDMA methylation in Z-138 cells; assay: sDMA western blot, 10 kDa band to total SmD3; assay type: cell-based; conditions: Homo sapiens, Table 3, read-out: sDMA Western IC50
Protocol: as §5

[6] = test system: sDMA methylation in Granta-519 cells; assay: sDMA western blot, 10 kDa band to total SmD3; assay type: cell-based; conditions: Homo sapiens, Table 3, read-out: sDMA Western IC50
Protocol: as §5

Maver-1 xenograft model = assay: 21 day mantle cell lymphoma xenograft study: TGI and tumor methyl mark; assay type: in vivo; conditions: all doses tested, day 21
Protocol: as §3

Structure (SMILES): O=C(COc1cccc2cccnc12)NC[C@@H](O)CN1CCc2ccccc2C1 [Formula D]
effect on pancreatic cancer cell morphology / growth (Panc-1): inhibition of cancer cell growth
effect on pancreatic cancer cell morphology / growth (Miapaca-2): inhibition of cancer cell growth
IC50 (Panc-1 cells; 96 h, Day 4, read-out: growth inhibitory concentration (gIC50)): 1990 nM
IC50 (Panc-1 cells; 144 h, Day 6, read-out: growth inhibitory concentration (gIC50)): 1240 nM
IC50 (Panc-1 cells; 312 h, Day 13, read-out: growth inhibitory concentration (gIC50)): 3900 nM
IC50 (MiaPaca-2 cells; MIA PaCa-2, 96 h, Day 4, read-out: growth inhibitory concentration (gIC50)): 349 nM
IC50 (MiaPaca-2 cells; MIA PaCa-2, 144 h, Day 6, read-out: growth inhibitory concentration (gIC50)): 269 nM
IC50 (MiaPaca-2 cells; MIA PaCa-2, 312 h, Day 13, read-out: growth inhibitory concentration (gIC50)): 929 nM

IC50 [2]: 7 nM
IC50 [3]: 8.7 nM
IC50 [4]: 0.3 nM
IC50 [5]: 14 nM
IC50 [6]: 2 nM
Structure (SMILES): CC(=O)N1CCC(Nc2cc(C(=O)NC[C@H](O)CN3CCc4ccccc4C3)ncn2)CC1 [Formula A]
body weight loss (BWL) exceeded by 4 animals ([1]; 100 mg/kg dose group): > 15%
average body weight loss (BWL) in all groups ([1]; 21 days): < 8%
IC50 (Jeko-1): 11.3 nM
IC50 (Granta-519): 4.7 nM
IC50 (Mino): 106 nM
Tumor growth inhibition (TGI) (Z-138 xenograft model): > 50%
IC50 (Z-138): 5.7 nM
IC50 (Maver-1): 32 nM
increase in Annexin-V positive cells (Z-138 cells; after 4 days): 12%
increase in Annexin-V positive cells (Z-138 cells; after 6 days): 40%
cells stained positive for Annexin-V (Maver-1 cells): 8%
Tumor growth inhibition (TGI) (Maver-1 xenograft model): > 50%
